Assay results reported in patent US20130165641A1, “6,11-BRIDGED BIARYL MACROLIDES” (Enanta Pharmaceuticals, Inc., priority 2007, published 2013).
Converted amounts (≈) assume the structure as drawn.

System: MRSA
Assay: MIC by micro-dilution method, MRSA isolates
Assay type: cell-based, Staphylococcus aureus
Details: compounds of Formula XVI; for MIC MRSA 7662: MRSA isolate 7662; for MIC MRSA 33591: MRSA isolate 33591
Procedure: Susceptibility tests can be used to quantitatively measure the in vitro activity of an antimicrobial agent against a given bacterial isolate. Compounds are tested for in vitro antibacterial activity by a micro-dilution method. Minimal Inhibitory Concentration (MIC) is determined in 96 well microtiter plates utilizing the appropriate broth medium for the observed bacterial isolates. […] The diluted compounds (2 μl/well) are then transferred into sterile, uninoculated medium (0.2 mL) by use of a 96 fixed tip-pipetting station. The inoculum for each bacterial strain is standardized to approximately 5×10^5 CFU/mL by optical comparison to a 0.5 McFarland turbidity standard. The plates are inoculated with 10 μl/well of adjusted bacterial inoculum. The 96 well plates are covered and incubated at 35+/−2° C. for 24 hours in ambient air environment. Following incubation, plate wells are visually examined by Optical Density measurement for the presence of growth (turbidity). The lowest concentration of an antimicrobial agent at which no visible growth occurs is defined as the MIC.
All in vitro testing follows the guidelines described in the Approved Standards M7-A7 protocol, published by the Clinical Laboratory Standards Institute (CLSI).

SMILES	MIC MRSA 7662 [µg/mL]	MIC MRSA 33591 [µg/mL]
CCC1OC(=O)C(C)(F)C(=O)C(C)C(OC2OC(C)CC(N(C)C)C2O)C2(C)CC(C)C(=NC(C)=O)C(C)C(OCC(=NOCc3ccc(-c4cccc(N)n4)cn3)CO2)C1(C)O (stereo not drawn) [Example 74]	8 (≈ 9.04 µM)	8 (≈ 9.04 µM)
CCC(=O)N=C1C(C)CC2(C)OCC(=NOCc3ccc(-c4cccc(N)n4)cn3)COC(C1C)C(C)(O)C(CC)OC(=O)C(C)(F)C(=O)C(C)C2OC1OC(C)CC(N(C)C)C1O (stereo not drawn) [Example 75]	4 (≈ 4.45 µM)	4 (≈ 4.45 µM)
CCCC(=O)N=C1C(C)CC2(C)OCC(=NOCc3ccc(-c4cccc(N)n4)cn3)COC(C1C)C(C)(O)C(CC)OC(=O)C(C)(F)C(=O)C(C)C2OC1OC(C)CC(N(C)C)C1O (stereo not drawn) [Example 76]	4 (≈ 4.38 µM)	4 (≈ 4.38 µM)
CCC1OC(=O)C(C)(F)C(=O)C(C)C(OC2OC(C)CC(N(C)C)C2O)C2(C)CC(C)C(=NC(=O)C3CC3)C(C)C(OCC(=NOCc3ccc(-c4cccc(N)n4)cn3)CO2)C1(C)O (stereo not drawn) [Example 77]	8 (≈ 8.78 µM)	8 (≈ 8.78 µM)
CCC1OC(=O)C(C)(F)C(=O)C(C)C(OC2OC(C)CC(N(C)C)C2O)C2(C)CC(C)C(=NC(C)=O)C(C)C(OCC(=NOCc3ccc(-n4ccc(N)n4)nc3)CO2)C1(C)O (stereo not drawn) [Example 78]	8 (≈ 9.15 µM)	8 (≈ 9.15 µM)
CCC(=O)N=C1C(C)CC2(C)OCC(=NOCc3ccc(-n4ccc(N)n4)nc3)COC(C1C)C(C)(O)C(CC)OC(=O)C(C)(F)C(=O)C(C)C2OC1OC(C)CC(N(C)C)C1O (stereo not drawn) [Example 79]	2 (≈ 2.25 µM)	4 (≈ 4.5 µM)
CCC1OC(=O)C(C)(F)C(=O)C(C)C(OC2OC(C)CC(N(C)C)C2O)C2(C)CC(C)C(=NC(=O)C(C)C)C(C)C(OCC(=NOCc3ccc(-c4cccc(N)n4)cn3)CO2)C1(C)O (stereo not drawn) [Example 80]	4 (≈ 4.38 µM)	4 (≈ 4.38 µM)
CCC1OC(=O)C(C)(F)C(=O)C(C)C(OC2OC(C)CC(N(C)C)C2O)C2(C)CC(C)C(=NC(C)=O)C(C)C(OCC(=NOCc3ccc(-n4ccc(N)n4)cc3)CO2)C1(C)O (stereo not drawn) [Example 81]	4 (≈ 4.58 µM)	4 (≈ 4.58 µM)
CCC1OC(=O)C(C)(F)C(=O)C(C)C(OC2OC(C)CC(N(C)C)C2O)C2(C)CC(C)C(=NC(C)=O)C(C)C(OCC(=NOCc3ccc(-n4ccc(N)n4)cn3)CO2)C1(C)O (stereo not drawn) [Example 82]	4 (≈ 4.58 µM)	8 (≈ 9.15 µM)
CCC(=O)N=C1C(C)CC2(C)OCC(=NOCc3ccc(-n4ccc(N)n4)cc3)COC(C1C)C(C)(O)C(CC)OC(=O)C(C)C(=O)C(C)C2OC1OC(C)CC(N(C)C)C1O (stereo not drawn) [Example 83]	2 (≈ 2.3 µM)	4 (≈ 4.6 µM)
CCC1OC(=O)C(C)C(=O)C(C)C(OC2OC(C)CC(N(C)C)C2O)C2(C)CC(C)C(=NC(C)=O)C(C)C(OCC(=NOCc3ccc(-n4ccc(N)n4)cc3F)CO2)C1(C)O (stereo not drawn) [Example 84]	8 (≈ 9.16 µM)	8 (≈ 9.16 µM)
CCC1OC(=O)C(C)(F)C(=O)C(C)C(OC2OC(C)CC(N(C)C)C2O)C2(C)CC(C)C(=NC(C)=O)C(C)C(OCC(=NOCc3ccc(-n4ccc(N)n4)cc3F)CO2)C1(C)O (stereo not drawn) [Example 85]	4 (≈ 4.49 µM)	8 (≈ 8.98 µM)
CCC1OC(=O)C(C)(F)C(=O)C(C)C(OC2OC(C)CC(N(C)C)C2O)C2(C)CC(C)C(=NC(=O)C(C)C)C(C)C(OCC(=NOCc3ccc(-n4ccc(N)n4)nc3)CO2)C1(C)O (stereo not drawn) [Example 86]	4 (≈ 4.43 µM)	4 (≈ 4.43 µM)
CCC1OC(=O)C(C)(F)C(=O)C(C)C(OC2OC(C)CC(N(C)C)C2O)C2(C)CC(C)C(=NC(=O)C(C)C)C(C)C(OCC(=NOCc3ccc(-n4ccc(N)n4)cn3)CO2)C1(C)O (stereo not drawn) [Example 87]	2 (≈ 2.22 µM)	4 (≈ 4.43 µM)
CCC1OC(=O)C(C)C(=O)C(C)C(OC2OC(C)CC(N(C)C)C2O)C2(C)CC(C)C(=NC(C)=O)C(C)C(OCC(=NOCc3ccc(-n4ccc(N)n4)cc3Cl)CO2)C1(C)O (stereo not drawn) [Example 88]	8 (≈ 8.99 µM)	8 (≈ 8.99 µM)
CCC1OC(=O)C(C)(F)C(=O)C(C)C(OC2OC(C)CC(N(C)C)C2O)C2(C)CC(C)C(=NC(C)=O)C(C)C(OCC(=NOCc3ccc(-n4ccc(N)n4)cc3Cl)CO2)C1(C)O (stereo not drawn) [Example 89]	4 (≈ 4.41 µM)	4 (≈ 4.41 µM)
CCC1OC(=O)C(C)C(=O)C(C)C(OC2OC(C)CC(N(C)C)C2O)C2(C)CC(C)C(=NC(=O)C(C)C)C(C)C(OCC(=NOCc3ccc(-n4ccc(N)n4)cc3)CO2)C1(C)O (stereo not drawn) [Example 90]	8 (≈ 9.06 µM)	8 (≈ 9.06 µM)
CCC(=O)N=C1C(C)CC2(C)OCC(=NOCc3ccc(-n4ccc(N)n4)cn3)COC(C1C)C(C)(O)C(CC)OC(=O)C(C)(F)C(=O)C(C)C2OC1OC(C)CC(N(C)C)C1O (stereo not drawn) [Example 92]	2 (≈ 2.25 µM)	4 (≈ 4.5 µM)
CCC1OC(=O)C(C)(F)C(=O)C(C)C(OC2OC(C)CC(N(C)C)C2O)C2(C)CC(C)C(=NC(=O)C3CC3)C(C)C(OCC(=NOCc3ccc(-n4ccc(N)n4)cc3)CO2)C1(C)O (stereo not drawn) [Example 93]	8 (≈ 8.9 µM)	8 (≈ 8.9 µM)
CCC1OC(=O)C(C)(F)C(=O)C(C)C(OC2OC(C)CC(N(C)C)C2O)C2(C)CC(C)C(=NC(=O)C3CC3)C(C)C(OCC(=NOCc3ccc(-n4ccc(N)n4)cn3)CO2)C1(C)O (stereo not drawn) [Example 94]	8 (≈ 8.89 µM)	8 (≈ 8.89 µM)
CCC1OC(=O)C(C)(F)C(=O)C(C)C(OC2OC(C)CC(N(C)C)C2O)C2(C)CC(C)C(=NC(C)=O)C(C)C(OCC(=NOCc3ccc(-n4ccc(N)n4)c(F)c3)CO2)C1(C)O (stereo not drawn) [Example 95]	8 (≈ 8.98 µM)	8 (≈ 8.98 µM)
C=Cc1cn(-c2ccc(CON=C3COC4C(C)C(=NC(C)=O)C(C)CC(C)(OC3)C(OC3OC(C)CC(N(C)C)C3O)C(C)C(=O)C(C)(F)C(=O)OC(CC)C4(C)O)nc2)nc1N (stereo not drawn) [Example 96]	8 (≈ 8.89 µM)	8 (≈ 8.89 µM)
CCC1OC(=O)C(C)(F)C(=O)C(C)C(OC2OC(C)CC(N(C)C)C2O)C2(C)CC(C)C(=NC(C)=O)C(C)C(OCC(=NOCc3cnc(-c4cccc(N)n4)s3)CO2)C1(C)O (stereo not drawn) [Example 97]	8 (≈ 8.98 µM)	8 (≈ 8.98 µM)
CCC1OC(=O)C(C)C(=O)C(C)C(OC2OC(C)CC(N(C)C)C2O)C2(C)CC(C)C(=NC(=O)C(C)C)C(C)C(OCC(=NOCc3ccc(-n4ccc(N)n4)cc3F)CO2)C1(C)O (stereo not drawn) [Example 98]	8 (≈ 8.88 µM)	8 (≈ 8.88 µM)
CC[C@H]1OC(=O)[C@@](C)(F)C(=O)[C@H](C)[C@@H](O[C@@H]2O[C@H](C)C[C@H](N(C)C)[C@H]2O)[C@@]2(C)C[C@@H](C)C(=NC(C)=O)[C@H](C)[C@@H](OC/C(=N\OCc3ccc(-n4ccc(N)n4)cc3OC)CO2)[C@]1(C)O [Example 99]	8 (≈ 8.86 µM)	8 (≈ 8.86 µM)
CC[C@H]1OC(=O)[C@@](C)(F)C(=O)[C@H](C)[C@@H](O[C@@H]2O[C@H](C)C[C@H](N(C)C)[C@H]2O)[C@@]2(C)C[C@@H](C)C(=NC(=O)C(C)C)[C@H](C)[C@@H](OC/C(=N\OCc3ncc(-c4cccc(N)n4)cn3)CO2)[C@]1(C)O [Example 100]	8 (≈ 8.75 µM)	8 (≈ 8.75 µM)
CC[C@H]1OC(=O)[C@@](C)(F)C(=O)[C@H](C)[C@@H](O[C@@H]2O[C@H](C)C[C@H](N(C)C)[C@H]2O)[C@@]2(C)C[C@@H](C)C(=NC(C)=O)[C@H](C)[C@@H](OC/C(=N\OCc3ccc(-c4nc(N)cs4)cn3)CO2)[C@]1(C)O [Example 101]	2 (≈ 2.24 µM)	4 (≈ 4.49 µM)
CC[C@H]1OC(=O)[C@@](C)(F)C(=O)[C@H](C)[C@@H](O[C@@H]2O[C@H](C)C[C@H](N(C)C)[C@H]2O)[C@@]2(C)C[C@@H](C)C(=NC(C)=O)[C@H](C)[C@@H](OC/C(=N\OCc3ccc(-c4nccc(N)n4)cn3)CO2)[C@]1(C)O [Example 102]	8 (≈ 9.03 µM)	8 (≈ 9.03 µM)
CC[C@H]1OC(=O)[C@@](C)(F)C(=O)[C@H](C)[C@@H](O[C@@H]2O[C@H](C)C[C@H](N(C)C)[C@H]2O)[C@@]2(C)C[C@@H](C)C(=NC(C)=O)[C@H](C)[C@@H](OC/C(=N\OCc3cnc(-c4cccc(N)n4)cn3)CO2)[C@]1(C)O [Example 103]	8 (≈ 9.03 µM)	8 (≈ 9.03 µM)
CC[C@H]1OC(=O)[C@@](C)(F)C(=O)[C@H](C)[C@@H](O[C@@H]2O[C@H](C)C[C@H](N(C)C)[C@H]2O)[C@@]2(C)C[C@@H](C)C(=NC(C)=O)[C@H](C)[C@@H](OC/C(=N\OCc3ccc(-c4csc(N)n4)cn3)CO2)[C@]1(C)O [Example 104]	8 (≈ 8.98 µM)	8 (≈ 8.98 µM)
